According to the supplement of paper PMC4862054:

Key:
Details in all cases: incubation time: 72 h
CAL-51 [1] = assay: normalised response (% of control), CellTiter-Glo; higher = more viable cells (100 = DMSO, 0 = benzethonium chloride kill control)
Experimental: (§1)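 DSRT, 72 h incubation, CellTox Green / CellTiter-Glo readout. Signal is normalised to DMSO and benzethonium chloride controls. Value is the normalised response at the highest dose.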

HCC1143 [2] = assay: as above
Experimental: as §1

HCC1599 [3] = assay: as above
Experimental: as §1

MDA-MB-436 [4] = assay: as above
Experimental: as §1

MCF-10A [5] = assay: as above
Experimental: as §1

HCC1937 [6] = assay: as above
Experimental: as §1

CAL-120 [7] = assay: as above
Experimental: as §1

MDA-MB-231 [8] = assay: as above
Experimental: as §1

HDQ-P1 [9] = assay: as above
Experimental: as §1

CAL-85-1 [10] = assay: as above
Experimental: as §1

DU-4475 [11] = assay: as above
Experimental: as §1

MFM-223 [12] = assay: as above
Experimental: as §1

SK-BR-3 = assay: as above
Experimental: as §1

Hs578T [13] = assay: as above
Experimental: as §1

CAL-148 [14] = assay: as above
Experimental: as §1

MDA-MB-468 [15] = assay: as above
Experimental: as §1

BT-549 [16] = assay: as above
Experimental: as §1

BT-474 [17] = assay: as above
Experimental: as §1

MDA-MB-453 [18] = assay: as above
Experimental: as §1

CAL-51 [19] = assay: normalised response (% of control), CellTox Green; higher = less cell death (100 = DMSO, 0 = benzethonium chloride kill control)
Method in brief: (§2)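 Values are normalised signals, each belonging to one concentration of the series. Breast cancer cells (20 µl suspension) were seeded into 384-well plates with compound at 5 concentrations in 10-fold steps over a compound-specific 10,000-fold range and incubated 72 h. Readouts were CellTox Green fluorescence (485/520 nm), then CellTiter-Glo luminescence after 10 min at room temperature, with each plate set to 0.1 % DMSO as 100 and a positive kill control as 0.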

HCC1143 [20] = assay: as above
Method in brief: as §2

HCC1599 [21] = assay: as above
Method in brief: as §2

MDA-MB-436 [22] = assay: as above
Method in brief: as §2

MCF-10A [23] = assay: as above
Method in brief: as §2

HCC1937 [24] = assay: as above
Method in brief: as §2

CAL-120 [25] = assay: as above
Method in brief: as §2

MDA-MB-231 [26] = assay: as above
Method in brief: as §2

HDQ-P1 [27] = assay: as above
Method in brief: as §2

CAL-85-1 [28] = assay: as above
Method in brief: as §2

DU-4475 [29] = assay: as above
Method in brief: as §2

MFM-223 [30] = assay: as above
Method in brief: as §2

Hs578T [31] = assay: as above
Method in brief: as §2

CAL-148 [32] = assay: as above
Method in brief: as §2

MDA-MB-468 [33] = assay: as above
Method in brief: as §2

BT-549 [34] = assay: as above
Method in brief: as §2

BT-474 [35] = assay: as above
Method in brief: as §2

MDA-MB-453 [36] = assay: as above
Method in brief: as §2

SMILES | normalised response (CAL-51 [1]) | normalised response (HCC1143 [2]) | normalised response (HCC1599 [3]) | normalised response (MDA-MB-436 [4]) | normalised response (MCF-10A [5]) | normalised response (HCC1937 [6]) | normalised response (CAL-120 [7]) | normalised response (MDA-MB-231 [8]) | normalised response (HDQ-P1 [9]) | normalised response (CAL-85-1 [10]) | normalised response (DU-4475 [11]) | normalised response (MFM-223 [12]) | normalised response (SK-BR-3) | normalised response (Hs578T [13]) | normalised response (CAL-148 [14]) | normalised response (MDA-MB-468 [15]) | normalised response (BT-549 [16]) | normalised response (BT-474 [17]) | normalised response (MDA-MB-453 [18]) | normalised response (CAL-51 [19]) | normalised response (HCC1143 [20]) | normalised response (HCC1599 [21]) | normalised response (MDA-MB-436 [22]) | normalised response (MCF-10A [23]) | normalised response (HCC1937 [24]) | normalised response (CAL-120 [25]) | normalised response (MDA-MB-231 [26]) | normalised response (HDQ-P1 [27]) | normalised response (CAL-85-1 [28]) | normalised response (DU-4475 [29]) | normalised response (MFM-223 [30]) | normalised response (Hs578T [31]) | normalised response (CAL-148 [32]) | normalised response (MDA-MB-468 [33]) | normalised response (BT-549 [34]) | normalised response (BT-474 [35]) | normalised response (MDA-MB-453 [36])
COC(=O)c1ccc2c(c1)NC(=O)/C2=C(\Nc1ccc(N(C)C(=O)CN2CCN(C)CC2)cc1)c1ccccc1 [Nintedanib] (10000 nM) | 2.78% | 48% | 84% | 17.1% | 40.1% | 27.6% | 52.1% | 1.73% | 40.1% | 87.7% | 84.8% | 50.6% | 71% | 82.3% | 90.8% | 4.97% | 0.72% | 3.88% | 73.4% | -13% | 87.2% | 99.9% | 42.1% | 31.4% | 14.2% | 77.8% | -69.5% | 61.2% | 85.3% | 96.7% | 92.7% | 104% | 79.6% | 15.6% | 27.7% | -15.7% | 99.7%
Cc1cc(Nc2cc(CN3CCOCC3)c3nc(C)c(Cc4ccc(Cl)cc4F)n3n2)n[nH]1 [Gandotinib] (10000 nM) | 26% | 51.7% | 75.9% | 49% | 41.2% | 64.2% | 27.9% | 27.9% | 39.4% | 58.8% | 72.3% | 59.8% | 50.8% | 7.38% | 96.7% | 28.5% | 14.2% | 44.5% | 120% | 24% | 100% | 92% | 82% | 58.1% | 101% | 59.9% | 67.7% | 102% | 51.3% | 103% | 76% | -107% | 69.7% | 11.5% | 83.8% | 80.9% | 88.8%
CNC(=O)c1ccc(N2C(=S)N(c3ccc(C#N)c(C(F)(F)F)c3)C(=O)C2(C)C)cc1F [Enzalutamide] (10000 nM) | 80.3% | 96.6% | 102% | 97.2% | 93.4% | 92.7% | 97.5% | 90.2% | 86.5% | 91.7% | 92.6% | 89.3% | 99% | 105% | 96.1% | 93.7% | 100% | 94.3% | 88.5% | 108% | 117% | 96.7% | 96.1% | 111% | 55.2% | 104% | 107% | 112% | 85% | 98.2% | 106% | 112% | 103% | 87.5% | 70.1% | 101% | 95.5%
CCOC(=O)CCNc1cc(N2CCc3ccccc3CC2)nc(-c2ccccn2)n1 [GSK-J4] (100000 nM) | 0.09% | -0.1% | -0.22% | 0.01% | 0.14% | 0.08% | 0.19% | 0.03% | 1.14% | 0.22% | 0.52% | -0.08% | -0.42% | 0.22% | 0.06% | 0.05% | 0.26% | 0.77% | -0.16% | -10.9% | 24.1% | 70.9% | -10.7% | -83.7% | -33.8% | -21.8% | -38.5% | -15.5% | -35.9% | 79.7% | -2.28% | -146% | 3.2% | -155% | -16.3% | -13.6% | 2.15%
CNC(=O)c1cccc(-c2ccc3c(N4CCOC[C@@H]4C)nc(N4CCOC[C@@H]4C)nc3n2)c1 [AZD2014] (10000 nM) | 20.6% | 25.4% | 65.3% | 54.4% | 33.9% | 42.3% | 23.6% | 46.2% | 34.1% | 27.3% | 23.8% | 33.6% | 20% | 27.4% | 15.3% | 25.6% | 19.9% | 49.6% | 33% | 90.1% | 110% | 95% | 95% | 96% | 108% | 106% | 107% | 104% | 77.8% | 86.3% | 93.4% | 129% | 58.9% | 136% | 74.9% | 96.4% | 95.2%
Nc1cc(C(F)(F)F)c(-c2cc(N3CCOCC3)nc(N3CCOCC3)n2)cn1 [Buparlisib] (10000 nM) | 1.1% | 57.4% | 94.3% | 65.4% | 36% | 36.2% | 56.3% | 48% | 46.9% | 83.3% | 80.2% | 47.8% | 81.5% | 75% | 79.9% | 11.3% | 3.53% | 15.8% | 75.6% | -15.4% | 68.6% | 93.4% | 75.9% | 79.4% | 50.4% | 92.1% | 29.4% | 85.7% | 104% | 95.8% | 81.7% | 18% | 70% | 111% | 33.8% | 24% | 97.9%
COc1cc(O)c2c(c1)/C=C/C[C@H](O)[C@H](O)C(=O)/C=C\C[C@H](C)OC2=O [(5Z)-7-Oxozeaenol] (10000 nM) | 3.02% | 39.9% | 32.7% | 25.1% | 34.5% | 32.5% | 41.3% | 4.8% | 20.5% | 13.9% | 4.88% | 25.6% | 23.5% | 9.82% | 26.9% | 21.4% | 4.83% | 14% | 38.5% | 45.5% | 135% | 97.8% | 102% | 64.3% | -41.8% | 83.6% | 28.4% | 87.9% | 27.7% | 57.9% | 67.3% | 49.4% | 56.2% | 51.8% | 79.2% | 54.5% | 85.9%
